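How tested: cells in 96-well plates exposed to compound for 48 hours at five concentrations. GI50 is the concentration that inhibits growth by half.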 The source made the active and inactive calls. No stated cut-off is given here; in the data, active = GI50 up to about 1.1 µM and inactive = higher. Where a SMILES comes first, the peptide text is derived from it. [ ]: non-standard residue; d: D form. The star is where a group is joined. Hyp = O=C(O)[CH]1C[CH](O)CN1; Cbz = O=C(OCc1ccccc1)* A value given as a limit tells only on which side of the number the result lay.

What all share (assay): growth of human tumour cells (NCI), 48 h
The subject of experiment [1] is HOP-62.
Experiment [2] concerns SR.
Experiment [3] relates to T47D.
Experiment [4] has as its system NCI-H23.
Experiment [5] deals with OVCAR-8.
Experiment [6] has as its system SK-OV-3.
The subject of experiment [7] is A498.
The test system of experiment [8] is RPMI-8226.
For experiment [9], the system named is HCC 2998.
The test system of experiment [10] is A549.
The test system of experiment [11] is HCT-15.
Experiment [12] relates to IGROV-1.
For experiment [13], the system named is SNB-75.
Experiment [14] relates to NCI-H460.
Experiment [15] relates to CCRF-CEM.
Experiment [16] relates to OVCAR-4.
For experiment [17], the system named is SF-268.
The test system of experiment [18] is SF-539.
The subject of experiment [19] is HOP-92.

On to `Nc1c(C(=O)O)c2ccc([N+](=O)[O-])cc2c(=O)n1-c1nc2ccccc2s1`, for which the GI50 in experiment [1], in experiment [2], in [3], in experiment [4], in experiment [5] and in experiment [6] was > 100 µM (inactive) throughout. The GI50 in experiment [7] is > 100 µM (inactive); in experiment [8], > 100 µM (inactive); in experiment [9], > 100 µM (inactive); in [10] it was > 100 µM (inactive); in experiment [11], more than 100 µM; in experiment [12], > 100 µM (inactive). Further, the GI50 in experiment [13], in [14], in experiment [15], in experiment [16] and in experiment [17] was > 100 µM (inactive) throughout.

Regarding `CCOC(=O)Oc1cc2ccsc2c2c1c1ccccc1n2C(=O)OCC`, the GI50 was 37.3 µM (inactive) in experiment [1]; > 100 µM (inactive) in experiment [2]; 28.6 µM (inactive) in [3]; 52.5 µM (inactive) in experiment [4]; 87.7 µM (inactive) in [5]; 29 µM (inactive) in experiment [6]. The GI50 in experiment [7] is 18.4 µM (inactive); in [8], 82 µM (inactive); in experiment [10], 48.9 µM (inactive); in [11], 26.2 µM; in experiment [12], > 100 µM (inactive); in [13], 27.1 µM (inactive). In addition, the GI50 in [18] is 36.4 µM (inactive); in experiment [19], 22 µM (inactive); in experiment [14], 30.9 µM (inactive); in experiment [15], > 100 µM (inactive); in experiment [16], 40.3 µM (inactive); in [17] it was 64 µM (inactive).

Regarding `O=c1[nH]nc(-c2ccccc2)n1-n1cccc1`, the GI50 in experiment [1] is > 100 µM (inactive); in experiment [2], 9.29 µM (inactive); in experiment [3], > 100 µM (inactive); in [5], > 100 µM (inactive); in experiment [6], > 100 µM (inactive); in experiment [7], > 100 µM (inactive). For the same compound, the GI50 is > 100 µM (inactive) in experiment [8]; > 100 µM (inactive) in experiment [9]; > 100 µM (inactive) in [10]; more than 100 µM in experiment [11]; > 100 µM (inactive) in experiment [12]; > 100 µM (inactive) in [13]. In addition, the GI50 in experiment [14] was > 100 µM (inactive); in experiment [15] it was 50.8 µM (inactive); in [16], > 100 µM (inactive); in experiment [17], > 100 µM (inactive).

`CN(C1=NCCO1)c1cccc2c1CCCC2`: the GI50 in experiment [1] is 7.08 µM (inactive); in [2], 1.21 µM (inactive); in experiment [3], 8.85 µM (inactive); in experiment [4] it was 3.73 µM (inactive); in [5], 5.3 µM (inactive); in experiment [6] it was 4.71 µM (inactive). The GI50 in experiment [7] was 3.71 µM (inactive); in experiment [8], 5.93 µM (inactive); in experiment [9], 3.79 µM (inactive); in experiment [10], 4.26 µM (inactive); in experiment [11], 3.48 µM; in experiment [12], 2.75 µM (inactive). The GI50 in experiment [18] was 3.25 µM (inactive); in experiment [14] it was 4.01 µM (inactive); in [15] it was 1.15 µM (inactive); in experiment [16], 3.05 µM (inactive); in experiment [17], 5.33 µM (inactive).

As for `COc1cc(S(=O)(=O)Nc2ccc(-c3csc(N4C(=O)C(C)SC4c4cccs4)n3)cc2)ccc1Cl` (stereo not drawn), the GI50 was 0.558 µM (active) in experiment [1]; 33.8 µM (inactive) in experiment [2]; 10.8 µM (inactive) in experiment [3]; 39.8 µM (inactive) in experiment [4]; 32.4 µM (inactive) in experiment [5]; 0.481 µM (active) in [6]. In addition, the GI50 was > 100 µM (inactive) in [7]; 24.1 µM (inactive) in [8]; 37 µM in experiment [11]; 29.1 µM (inactive) in [12]; 48.9 µM (inactive) in [18]; 20.1 µM (inactive) in experiment [19]. For the same compound, the GI50 in experiment [15] is 8.28 µM (inactive); in experiment [17], 22.5 µM (inactive).

`COc1ccc2cc(C(=O)O)ccc2c1OC`: the GI50 in experiment [1], in [2], in experiment [3], in [4], in [5] and in experiment [6] was > 100 µM (inactive) each time. The GI50 is > 100 µM (inactive) in [7]; > 100 µM (inactive) in [9]; > 100 µM (inactive) in experiment [10]; more than 100 µM in experiment [11]; > 100 µM (inactive) in experiment [12]; 43 µM (inactive) in experiment [13]. In addition, the GI50 in [18], in experiment [14], in experiment [15] and in [17] was > 100 µM (inactive) in each case.

Consider `N=C(N)NS(=O)(=O)c1ccc(NNC(=O)c2cccc3c(O)c4ccccc4nc23)cc1`, for which the GI50 was 22 µM (inactive) in experiment [1]; 35.6 µM (inactive) in experiment [2]; 17.7 µM (inactive) in experiment [3]; 31.2 µM (inactive) in experiment [4]; 26.1 µM (inactive) in [5]; 29.6 µM (inactive) in [6]. Also, the GI50 was 37.2 µM (inactive) in experiment [8]; 18.1 µM (inactive) in experiment [9]; 38.7 µM (inactive) in experiment [10]; 23 µM in experiment [11]; 24.9 µM (inactive) in experiment [12]; 30.7 µM (inactive) in experiment [13]. Besides, the GI50 was 26.5 µM (inactive) in [18]; 25.3 µM (inactive) in [19]; 20.6 µM (inactive) in experiment [14]; 34.4 µM (inactive) in experiment [15]; 29.5 µM (inactive) in experiment [16]; 33.7 µM (inactive) in [17].

For `CC(C)(C)[Si](C)(C)OCC1CCC(n2cnc3c(=O)[nH]cnc32)O1` (stereo not drawn), the GI50 is > 100 µM (inactive) in [1]; 35.3 µM (inactive) in experiment [2]; 82.8 µM (inactive) in [3]; > 100 µM (inactive) in experiment [4]; 94.4 µM (inactive) in experiment [5]; > 100 µM (inactive) in experiment [6]. The GI50 in [8] was 65.5 µM (inactive); in experiment [9], > 100 µM (inactive); in experiment [10], > 100 µM (inactive); in experiment [11], more than 100 µM; in experiment [12], > 100 µM (inactive); in [13] it was 20.3 µM (inactive). For the same compound, the GI50 in experiment [18] was > 100 µM (inactive); in experiment [19] it was > 100 µM (inactive); in [14], > 100 µM (inactive); in experiment [15], 68.5 µM (inactive); in experiment [16], > 100 µM (inactive); in [17], > 100 µM (inactive).

Take `COCc1nc(C#N)c(N)o1`: the GI50 in experiment [1], in experiment [2], in experiment [3], in experiment [4], in experiment [5] and in experiment [6] was > 10 µM (inactive) each time. For the same compound, the GI50 in [8] is > 10 µM (inactive); in experiment [9], > 10 µM (inactive); in experiment [10], > 10 µM (inactive); in experiment [11] it was more than 10 µM; in experiment [12], > 10 µM (inactive); in [13], > 10 µM (inactive). Besides, the GI50 in [18], in experiment [19], in [14], in [15], in experiment [16] and in experiment [17] was > 10 µM (inactive) in each case.

Turning to `CCCCn1c2c(c3ccccc3c1=O)C(=O)c1ccccc1-2`, the GI50 in experiment [1] is 19.9 µM (inactive); in [2] it was 1.82 µM (inactive); in experiment [3] it was 16.2 µM (inactive); in [4], 45.2 µM (inactive); in [5], > 100 µM (inactive); in experiment [6], > 100 µM (inactive). Also, the GI50 was > 100 µM (inactive) in experiment [7]; > 100 µM (inactive) in experiment [8]; 25 µM (inactive) in [10]; more than 100 µM in experiment [11]; 76.7 µM (inactive) in [12]; 37.2 µM (inactive) in [13]. Besides, the GI50 was 49.1 µM (inactive) in experiment [18]; > 100 µM (inactive) in experiment [19]; > 100 µM (inactive) in experiment [15]; 1.82 µM (inactive) in experiment [16]; 29 µM (inactive) in experiment [17].

For `NC(=O)CNC(=O)C1CC(O)CN1C(=O)C1CCCN1C(=O)OCc1ccccc1` (stereo not drawn) (Cbz-Pro-[Hyp]-Gly-NH2; configuration not given here), the GI50 in experiment [1], in experiment [2], in [3], in experiment [4], in [5] and in [6] was > 100 µM (inactive) each time. The GI50 in experiment [7] was > 100 µM (inactive); in experiment [8] it was > 100 µM (inactive); in experiment [9] it was > 100 µM (inactive); in experiment [10], > 100 µM (inactive); in [11], more than 100 µM; in experiment [12], > 100 µM (inactive). The GI50 in experiment [13], in [14], in experiment [15], in [16] and in [17] was > 100 µM (inactive) each time.

As for `O=C(NC1CCN(Cc2ccccc2)CC1)c1cccc(I)c1`, the GI50 was 15.8 µM (inactive) in [1]; 18.8 µM (inactive) in experiment [2]; 24.1 µM (inactive) in experiment [3]; 24 µM (inactive) in [4]; 39.2 µM (inactive) in experiment [5]; 22.2 µM (inactive) in experiment [6]. Further, the GI50 in [7] is 46.6 µM (inactive); in experiment [8], 12.5 µM (inactive); in [10] it was 31.9 µM (inactive); in [11] it was 17.5 µM; in experiment [12], 39 µM (inactive); in experiment [18], 22.8 µM (inactive). The GI50 in [19] was 22 µM (inactive); in experiment [14], 22 µM (inactive); in experiment [15], 33.3 µM (inactive); in experiment [16] it was 58.2 µM (inactive); in [17], 50.9 µM (inactive).
